These results are taken from US12240862B2, “Inhibitors of peptidylarginine deiminases” (Gilead Sciences, Inc., priority 2020, dated 2025).

T1 sequence (Q9UM07 2-663): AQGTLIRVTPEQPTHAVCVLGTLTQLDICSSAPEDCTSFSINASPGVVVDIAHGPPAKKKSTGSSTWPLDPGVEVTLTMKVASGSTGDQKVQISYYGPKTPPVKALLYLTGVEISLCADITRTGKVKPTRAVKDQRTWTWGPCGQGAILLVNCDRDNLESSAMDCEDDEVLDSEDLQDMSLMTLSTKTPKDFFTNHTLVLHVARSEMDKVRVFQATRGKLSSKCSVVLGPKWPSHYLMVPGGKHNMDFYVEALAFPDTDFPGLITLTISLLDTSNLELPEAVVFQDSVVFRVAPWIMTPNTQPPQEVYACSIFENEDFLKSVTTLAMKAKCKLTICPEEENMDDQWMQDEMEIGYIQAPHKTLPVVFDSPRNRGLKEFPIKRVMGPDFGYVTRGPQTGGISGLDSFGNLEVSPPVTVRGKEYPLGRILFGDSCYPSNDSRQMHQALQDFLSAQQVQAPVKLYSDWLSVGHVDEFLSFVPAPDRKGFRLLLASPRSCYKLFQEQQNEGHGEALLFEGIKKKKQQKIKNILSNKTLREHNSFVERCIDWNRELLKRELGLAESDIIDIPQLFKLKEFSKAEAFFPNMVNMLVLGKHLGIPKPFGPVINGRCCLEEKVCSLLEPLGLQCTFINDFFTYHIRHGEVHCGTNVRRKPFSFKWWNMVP

This assay addresses T1, human PAD4 (Homo sapiens, UniProt Q9UM07).
T1 construct: human PAD4 (NM_012387), A2P663, was PCR amplified; His-SUMO (N, cleaved yes); made in house; host or cells: E. coli BL21(DE3)
Description: In vitro PAD4 BAEE biochemical assay. As to conditions: human PAD4, BAEE substrate; 5 nM PAD4, 2 mM calcium chloride, 3 mM BAEE; geometric mean of multiple experiments. The gist of the method:
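Tag-free recombinant hPAD4 (5 nM), 2 mM CaCl2, 3 mM BAEE, 50 mM MOPS pH 7.6, 2 mM DTT; 30 min compound preincubation, 2 h reaction, all 25 °C. EDTA quench; ammonia read via o-phthalaldehyde amine coupling, 1 h.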
On to `COc1cc(C(=O)N2[C@H]3CCC[C@@H]2[C@H](N)C3)cc2nc(-c3cc4ccc(N(C(F)F)S(C)(=O)=O)nc4n3CC3CC3)c(C)n12` [Example 332, N-[2-[7-[(1S,5R,6R)-6-amino-8-azabicyclo[3.2.1]octane-8-carbonyl]-5-methoxy-3-methyl-imidazo [1,2-a]pyridin-2-yl]-1-(cyclopropylmethyl)pyrrolo [2,3-b]pyridin-6-yl]-N-(difluoromethyl) methanesulfonamide], for which the IC50 stood at 390 nM.
Next, `CCOC(=O)N(C)c1ccc2cc(-c3nc4cc(C(=O)N5[C@H]6CC[C@@H]5[C@@H](N)CC6)cc(OC)n4c3C)n(CC3CC3)c2n1` [Example 491, ethyl~{N}-[2-[7-[(1~{R}, 2~{S},5~{R})-2-amino-8-azabicyclo[3.2.1]octane-8-carbonyl]-5-methoxy-3-methylimidazo[1,2-a]pyridin-2-yl]-1-(cyclopropylmethyl)pyrrolo [2,3-b]pyridin-6-yl]-~{N}-methylcarbamate]: 32000 nM; `COc1cc(C(=O)N2[C@H]3CC[C@@H]2[C@H](N)C3)cc2nc(-c3cc4ccc([C@@H](C)Nc5ncccn5)nc4n3CC3CC3)c(C)n12` [Example 265, ((1R,2R,4S)-2-amino-7-azabicyclo[2.2.1]heptan-7-yl)(2-(1-(cyclopropylmethyl)-6-((R)-1-(pyrimidin-2-ylamino)ethyl)-1H-pyrrolo[2,3-b]pyridin-2-yl)-5-methoxy-3-methylimidazo[1,2-a]pyridin-7-yl)methanone]: 72 nM; `COc1cc(C(=O)N2[C@H]3CC[C@@H]2[C@H](N)C3)cc2nc(-c3cc4ccc([C@@H](C)NC(=O)C(C)(C)C(F)(F)F)nc4n3CC3CC3)c(C)n12` [Example 171, ~{N}-[(1~{R})-1-[2-[7-[(1~{R},2~{R},4~{S})-2-amino-7-azabicyclo[2.2.1]heptane-7-carbonyl]-5-methoxy-3-methylimidazo [1,2-a]pyridin-2-yl]-1-(cyclopropylmethyl)pyrrolo [2,3-b]pyridin-6-yl]ethyl]-3,3,3-trifluoro-2,2-dimethylpropanamide]: 179 nM.
Next, `COc1cc(C(=O)N2C[C@H](N)CC[C@@H]2C)cc2nc(-c3cc4ccc(N(C)S(C)(=O)=O)nc4n3CC3CC3)c(C)n12` [Example 481, N-(2-(7-((2S,5R)-5-amino-2-methylpiperidine-1-carbonyl)-5-methoxy-3-methylimidazo[1,2-a]pyridin-2-yl)-1-(cyclopropylmethyl)-1H-pyrrolo[2,3-b]pyridin-6-yl)-N-methylmethanesulfonamide]: 152 nM; `COc1cc(C(=O)N2CC[C@H]3CCNC[C@H]32)cc2nc(-c3cc4ccc(N(C(F)F)S(C)(=O)=O)nc4n3CC3CC3)c(C)n12` [Example 415, ~{N}-[2-[7-[(3~{a}~{R},7~{a}~{S})-2,3,3~{a},4,5,6,7,7~{a}-octahydropyrrolo[2,3-c]pyridine-1-carbonyl]-5-methoxy-3-methylimidazo[1,2-a]pyridin-2-yl]-1-(cyclopropylmethyl)pyrrolo [2,3-b]pyridin-6-yl]-~{N}-(difluoromethyl) methanesulfonamide]: 27900 nM.
The same measure for `COc1cc(C(=O)N2[C@H]3CC[C@@H]2[C@H](N)C3)cc2nc(-c3cc4ccc(N5CCOCCS5(=O)=O)nc4n3CC3CC3)c(C)n12` [Example 451, [(1~{R},2~{R},4~{S})-2-amino-7-azabicyclo [2.2.1]heptan-7-yl]-[2-[1-(cyclopropylmethyl)-6-(4,4-dioxo-1,4,5-oxathiazepan-5-yl)pyrrolo [2,3-b]pyridin-2-yl]-5-methoxy-3-methylimidazo[1,2-a]pyridin-7-yl]methanone]: 21.8 nM.
Consider `COc1cc(C(=O)N2CCC[C@@H](N)[C@H]2C)cc2nc(-c3cc4ccc(N(C)S(C)(=O)=O)nc4n3CC3CC3)c(C)n12` [Example 480, ~{N}-[2-[7-[(2~{R}, 3~{R})-3-amino-2-methylpiperidine-1-carbonyl]-5-methoxy-3-methylimidazo[1,2-a]pyridin-2-yl]-1-(cyclopropylmethyl)pyrrolo [2,3-b]pyridin-6-yl]-~{N}-methylmethanesulfonamide], for which the IC50 was 166 nM.
For the compound `COc1cc(C(=O)N2[C@H]3CC[C@@H]2[C@H](N)C3)cc2nc(-c3cc4ccc([C@@H](C)Nc5cnn(C(C)(C)C)c5)nc4n3CC3CC3)c(C)n12` [Example 260, [(1~{R},2~{R},4~{S})-2-amino-7-azabicyclo[2.2.1]heptan-7-yl]-[2-[6-[(1~{R})-1-[(1-~{tert}-butylpyrazol-4-yl)amino]ethyl]-1-(cyclopropylmethyl)pyrrolo [2,3-b]pyridin-2-yl]-5-methoxy-3-methylimidazo [1,2-a]pyridin-7-yl] methanone], the IC50 is 122 nM.
Next, `CC[C@H]1CCCS(=O)(=O)N1c1ccc2cc(-c3nc4cc(C(=O)N5[C@H]6CC[C@@H]5[C@H](N)C6)cc(OC)n4c3C)n(CC3CC3)c2n1` [Example 446, [(1~{R},2~{R},4~{S})-2-amino-7-azabicyclo [2.2.1]heptan-7-yl]-[2-[1-(cyclopropylmethyl)-6-[(3~{S})-3-ethyl-1,1-dioxothiazinan-2-yl]pyrrolo[2,3-b]pyridin-2-yl]-5-methoxy-3-methylimidazo[1,2-a]pyridin-7-yl]methanone]: 73.3 nM.
The same measure for `COc1cc(C(=O)N2[C@H]3CC[C@@H]2[C@H](N)C3)cc2nc(-c3cc4ccc([C@@H](C)NC(=O)N5CCCC5)nc4n3CC3CC3)c(C)n12` [Example 251, N—((R)-1-(2-(7-((1R,2R,4S)-2-amino-7-azabicyclo[2.2.1]heptane-7-carbonyl)-5-methoxy-3-methylimidazo[1,2-a]pyridin-2-yl)-1-(cyclopropylmethyl)-1H-pyrrolo[2,3-b]pyridin-6-yl)ethyl)pyrrolidine-1-carboxamide]: 50.2 nM; for `CC(C)c1c(-c2cc3ccc(N(C(F)F)S(C)(=O)=O)nc3n2CC2CC2)nc2cc(C(=O)N3CCC[C@@H](N)C3)ccn12` [Example 433, ~{N}-[2-[7-[(3~{R})-3-aminopiperidine-1-carbonyl]-3-propan-2-ylimidazo[1,2-a]pyridin-2-yl]-1-(cyclopropylmethyl)pyrrolo [2,3-b]pyridin-6-yl]-~{N}-(difluoromethyl) methanesulfonamide]: 7040 nM; for `COc1cc(C(=O)N2[C@H]3CC[C@@H]2[C@H](N)C3)cc2nc(-c3cc4ccc([C@@H](C)NC(=O)C56CC(CO)(C5)C6)nc4n3CC3CC3)c(C)n12` [Example 65]: 33.6 nM.
Take `COCC1(C(=O)N[C@H](C)c2ccc3cc(-c4nc5cc(C(=O)N6[C@H]7CC[C@@H]6[C@H](N)C7)cc(OC)n5c4C)n(CC4CC4)c3n2)CC1` [Example 68, ~{N}-[(1~{R})-1-[2-[7-[(1~{R},2~{R},4~{S})-2-amino-7-azabicyclo [2.2.1]heptane-7-carbonyl]-5-methoxy-3-methylimidazo [1,2-a]pyridin-2-yl]-1-(cyclopropylmethyl)pyrrolo[2,3-b]pyridin-6-yl]ethyl]-1-(methoxymethyl) cyclopropane-1-carboxamide]: the IC50 worked out at 45.3 nM.
As for `COc1cc(C(=O)N2C[C@H](N)CC[C@@H]2C)cc2nc(-c3cc4ccc(-c5c(C)nn(CC(N)=O)c5C)nc4n3CC3CC3)c(C)n12` [Example 609, 2-[4-[2-[7-[(2~{S}, 5~{R})-5-amino-2-methylpiperidine-1-carbonyl]-5-methoxy-3-methylimidazo [1,2-a]pyridin-2-yl]-1-(cyclopropylmethyl)pyrrolo [2,3-b]pyridin-6-yl]-3,5-dimethylpyrazol-1-yl]acetamide], the IC50 was determined as 711 nM.
Next, `COc1cc(C(=O)N2CC[C@@H]3CCN[C@@H]3C2)cc2nc(-c3cc4ccc(N(C(F)F)S(C)(=O)=O)nc4n3CC3CC3)c(C)n12` [Example 419]: 1170 nM; `COc1cc(C(=O)N2[C@@H]3CC[C@@H](N)[C@H]2CC3)cc2nc(-c3cc4ccc([C@@H](C)NC(=O)C(C)(C)C)nc4n3CC3CC3)c(C)n12` [Example 170, ~{N}-[(1~{R})-1-[2-[7-[(1~{R},2~{R},5~{R})-2-amino-8-azabicyclo[3.2.1]octane-8-carbonyl]-5-methoxy-3-methylimidazo [1,2-a]pyridin-2-yl]-1-(cyclopropylmethyl)pyrrolo [2,3-b]pyridin-6-yl]ethyl]-2,2-dimethylpropanamide]: 161 nM; `COc1cc(C(=O)N2[C@H]3CC[C@@H]2[C@H](N)C3)cc2nc(-c3cc4ccc([C@@H](C)NC(=O)C(C)(O)C5CC5)nc4n3CC3CC3)c(C)n12` (some centres unmarked) [Example 92, ~{N}-[(1~{R})-1-[2-[7-[(1~ {R},2~{R},4~{S})-2-amino-7-azabicyclo[2.2.1]heptane-7-carbonyl]-5-methoxy-3-methylimidazo [1,2-a]pyridin-2-yl]-1-(cyclopropylmethyl)pyrrolo [2,3-b]pyridin-6-yl]ethyl]-2-cyclopropyl-2-hydroxypropanamide]: 59.7 nM.
For `COc1cc(C(=O)N2[C@H]3CC[C@@H]2[C@H](N)C3)cc2nc(-c3cc4ccc(C5CCN(C(=O)C(C)(C)C)CC5)nc4n3CC3CC3)c(C)n12` [Example 526, 1-[4-[2-[7-[(1~{R},2~{R}, 4~{S})-2-amino-7-azabicyclo[2.2.1]heptane-7-carbonyl]-5-methoxy-3-methylimidazo[1,2-a]pyridin-2-yl]-1-(cyclopropylmethyl)pyrrolo [2,3-b]pyridin-6-yl]piperidin-1-yl]-2,2-dimethylpropan-1-one], the IC50 came to 458 nM.
In the case of `COc1cc(C(=O)N2CC[C@H]3CCN[C@H]3C2)cc2nc(-c3cc4ccc(N(C(F)F)S(C)(=O)=O)nc4n3CC3CC3)c(C)n12` [Example 420, ~{N}-[2-[7-[(3~{a}~{R},7~{a}~{R})-1,2,3,3~{a},4,5,7,7~{a}-octahydropyrrolo[2,3-c]pyridine-6-carbonyl]-5-methoxy-3-methylimidazo [1,2-a]pyridin-2-yl]-1-(cyclopropylmethyl)pyrrolo [2,3-b]pyridin-6-yl]-~{N}-(difluoromethyl) methanesulfonamide], the IC50 turned out to be 60.6 nM.
